In paper PMC3624624 (Bioorganic & medicinal chemistry letters, 2013):

Tests used:
[1] = molecular target: T1, CXCR4 (Homo sapiens, UniProt P61073); test: Fluorescent T-140/CXCR4 cross-link inhibition; type: binding
[2] = tested on: TZM-bl; test: MTS toxicity on TZM-bl; type: cell-based; details: 72 h, concentrations up to 4 μM, data not shown
[3] = tested on: H9; test: MTS toxicity on H9; type: cell-based; details: H9, 72 h, concentrations up to 4 μM, data not shown
[4] = tested on: PHA blast cultures; test: MTS toxicity on PHA blast cultures; type: cell-based; details: 72 h, concentrations up to 4 μM, data not shown
[5] = molecular target: T1, CXCR4; test: Inhibition of binding of anti-CXCR4 mAbs to cells; type: cell-based; details: for inhibition of binding of anti-CXCR4 mAb 12G5 / inhibition of binding of anti-CXCR4 mAb 44708 / inhibition of binding of anti-CXCR4 mAb 44716 / inhibition of binding of anti-CXCR4 mAb 44717: 3 μM, Fig. 2C; for blocking of anti-CXCR4 mAb 44716 binding: H9 lymphoma cells, 1 μM compound, Fig. 2A; for inhibition of anti-CXCR4 mAb 12G5 binding: titration, H9 cells and primary T cell blasts, Fig. 2B
[6] = molecular target: CD4 (Homo sapiens, UniProt P01730); test: Inhibition of binding of control anti-CD4 mAb Sim.2 to cells; type: cell-based; details: titration, H9 cells and primary T cell blasts, Fig. 2B
[7] = tested on: X4 strains of HIV-1; test: TZM-bl HIV-1 neutralization assay, X4 isolates; type: cell-based; details: TZM-bl cells, Fig. 3B

T1 sequence (P61073 whole entry): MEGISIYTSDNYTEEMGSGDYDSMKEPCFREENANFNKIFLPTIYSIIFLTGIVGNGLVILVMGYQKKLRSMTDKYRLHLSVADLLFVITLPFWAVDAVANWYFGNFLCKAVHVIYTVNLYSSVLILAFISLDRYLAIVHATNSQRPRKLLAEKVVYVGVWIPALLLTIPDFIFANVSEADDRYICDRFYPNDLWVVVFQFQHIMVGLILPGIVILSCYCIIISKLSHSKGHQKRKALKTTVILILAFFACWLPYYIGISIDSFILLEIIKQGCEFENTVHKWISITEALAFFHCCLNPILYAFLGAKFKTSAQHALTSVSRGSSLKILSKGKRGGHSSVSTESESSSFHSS

Compound | fold higher CXCR4 affinity than the previously published phenylguanides [1] | inhibition in MTS dye reduction [2] | inhibition in MTS dye reduction [3] | inhibition in MTS dye reduction [4] | inhibition of binding of anti-CXCR4 mAb 12G5 [5] | inhibition of binding of anti-CXCR4 mAb 44708 [5] | inhibition of binding of anti-CXCR4 mAb 44716 [5] | inhibition of binding of anti-CXCR4 mAb 44717 [5] | blocking of anti-CXCR4 mAb 44716 binding [5] | inhibition of anti-CXCR4 mAb 12G5 binding [5] | inhibition of anti-CD4 mAb Sim.2 binding [6] | inhibition of a panel of four X4-tropic viruses [7]
N=C(NCCCNCCCCN(CCCNC(=N)Nc1cccc2ccccc12)C(=N)Nc1cccc2ccccc12)Nc1cccc2ccccc12 [spermine tris-1-NapG, spermine tris-1-naphthylguanide] | 5 fold | no significant inhibition | no significant inhibition | no significant inhibition | completely inhibited | only partly inhibited | completely inhibited | only partly inhibited | most effective | inhibits anti-CXCR4 binding | not anti-CD4 | all were inhibited at submicromolar concentrations
N=C(NCCCNCCCCN(CCCNC(=N)Nc1ccc2ccccc2c1)C(=N)Nc1ccc2ccccc2c1)Nc1ccc2ccccc2c1 [spermine tris-2-NapG, spermine tris-2-naphthylguanide] | – | – | – | – | – | – | – | – | next best | – | – | –
NCCCNCCCCNCCCN [spermine, reference compound] | – | – | – | – | No inhibition | No inhibition | No inhibition | No inhibition | – | does not inhibit | – | –
